Test results published in patent US12534457B2, “Heteroaryl derivative compounds, and uses thereof” (Voronoi Inc., priority 2021, dated 2026).

Each molecule was assayed on Ba/F3 cells expressing EGFR Del19/C797S (EGFR DC) (assay: Proliferation inhibitory activity, Ba/F3 cells expressing EGFR Del19/C797S (CellTiter-Glo)). Details: Mus musculus, BaF3, 72 hours of compound treatment.
Format: cell-based
Summary of the method: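 Viability after 72 h of compound exposure was measured by luminescence (CellTiter-Glo) in Ba/F3 lines transduced with mutant EGFR. Final concentrations spanned 0.2 nM–5 μM over 12 threefold steps. Growth relative to untreated control gave GI50 values; each test was run three times.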

GI50	Structure (SMILES)
< 50 nM	CCc1cc(Nc2cc(N3OCC[C@@H]3c3cccc(F)c3F)ncn2)c(OC)cc1N1CCC(N2CCN(C)CC2)CC1 [Example 92, (R)-6-(3-(2,3-difluorophenyl)isoxazolidin-2-yl)-N-(5-ethyl-2-methoxy-4-(4-(4-methylpiperazin-1-yl)piperidin-1-yl)phenyl)pyrimidin-4-amine]
< 50 nM	COc1cc(N2CCC(N3CCN(C4COC4)CC3)CC2)ccc1Nc1cc(N2OCC[C@@H]2c2cccc(F)c2F)ncn1 [Example 209, (R)-6-(3-(2,3-difluorophenyl)isoxazolidin-2-yl)-N-(2-methoxy-4-(4-(4-(oxetan-3-yl)piperazin-1-yl)piperidin-1-yl)phenyl)pyrimidin-4-amine]
< 50 nM	COc1cc(N2CCC(N3CCN(C)C(=O)C3)CC2)ccc1Nc1cc(N2OCC[C@@H]2c2cccc(F)c2F)ncn1 [Example 224, (R)-4-(1-(4-((6-(3-(2,3-difluorophenyl)isoxazolidin-2-yl)pyrimidin-4-yl)amino)-3-methoxyphenyl)piperidin-4-yl)-1-methylpiperazin-2-one]
50 to 500 nM	CN1CCN(Cc2cc(Nc3cc(N4OCC[C@@H]4c4cc(F)cc(F)c4)ncn3)cc(C(C)(C)C#N)c2)CC1 [Example 14, (R)-2-(3-((6-(3-(3,5-difluorophenyl)isoxazolidin-2-yl)pyrimidin-4-yl)amino)-5-((4-methylpiperazin-1-yl)methyl)phenyl)-2-methylpropanenitrile]
< 50 nM	Fc1cc(F)cc([C@H]2CCON2c2cc(Nc3ccc(C4CCNCC4)c4c3OCC4)ncn2)c1 [Example 157, (R)-6-(3-(3,5-difluorophenyl)isoxazolidin-2-yl)-N-(4-(piperidin-4-yl)-2,3-dihydrobenzofuran-7-yl)pyrimidin-4-amine]
< 50 nM	COc1cc(N2CCOCC2)ccc1Nc1cc(N2OCC[C@@H]2c2ccccc2)ncn1 [Example 110, (R)—N-(2-methoxy-4-morpholinophenyl)-6-(3-phenylisoxazolidin-2-yl)pyrimidin-4-amine]
< 50 nM	COc1cc(N2CCC(N3CC[C@@H](N(C)C)C3)CC2)ccc1Nc1cc(N2OCC[C@@H]2c2cccc(F)c2F)ncn1 [Example 212, 6-((R)-3-(2,3-difluorophenyl)isoxazolidin-2-yl)-N-(4-(4-((R)-3-(dimethylamino)pyrrolidin-1-yl)piperidin-1-yl)-2-methoxyphenyl)pyrimidin-4-amine]
< 50 nM	COc1cc(OCCN(C)C)ccc1Nc1cc(N2OCC[C@@H]2c2ccccc2)ncn1 [Example 64, (R)—N-(4-(2-(dimethylamino)ethoxy)-2-methoxyphenyl)-6-(3-phenylisoxazolidin-2-yl)pyrimidin-4-amine]
< 50 nM	Cc1cc(Nc2cc(N3OCC[C@@H]3c3ccccc3)ncn2)ccc1N1CCN(C)CC1 [Example 107, (R)—N-(3-methyl-4-(4-methylpiperazin-1-yl)phenyl)-6-(3-phenylisoxazolidin-2-yl)pyrimidin-4-amine]
50 to 500 nM	CN1CCC(n2cc(-c3ccc(Nc4cc(N5OCC[C@@H]5c5cc(F)cc(F)c5)ncn4)c4c3CCO4)cn2)CC1 [Example 160, (R)-6-(3-(3,5-difluorophenyl)isoxazolidin-2-yl)-N-(4-(1-(1-methylpiperidin-4-yl)-1H-pyrazol-4-yl)-2,3-dihydrobenzofuran-7-yl)pyrimidin-4-amine]
< 50 nM	CN(C)C1CCN(c2ccc(Nc3cc(N4OCC[C@@H]4c4ccccc4)ncn3)nc2)CC1 [Example Compound 138, (R)-N-(5-(4-(dimethylamino)piperidin-1-yl)pyridin-2-yl)-6-(3-phenylisoxazolidin-2-yl)pyrimidin-4-amine]
< 50 nM	C[C@@H](Oc1cc(N2CCC(N3CCN(C)CC3)CC2)ccc1Nc1cc(N2OCC[C@@H]2c2ccccc2)ncn1)C(F)(F)F [Example 56, N-(4-(4-(4-methylpiperazin-1-yl)piperidin-1-yl)-2-(((R)-1,1,1-trifluoropropan-2-yl)oxy)phenyl)-6-((R)-3-phenylisoxazolidin-2-yl)pyrimidin-4-amine]
< 50 nM	COc1cc(N2CCN(C3CCN(C)CC3)C[C@H]2C)ccc1Nc1cc(N2OCC[C@@H]2c2ccccc2)ncn1 [Example 99, N-(2-methoxy-4-((R)-2-methyl-4-(1-methylpiperidin-4-yl)piperazin-1-yl)phenyl)-6-((R)-3-phenylisoxazolidin-2-yl)pyrimidin-4-amine]
< 50 nM	COc1cc(N2CCC(N3CCN(C)CC3)CC2)ccc1Nc1cc(N2OCC[C@@H]2c2cccc(F)c2)ncn1 [Example 29, (R)-6-(3-(3-fluorophenyl)isoxazolidin-2-yl)-N-(2-methoxy-4-(4-(4-methylpiperazin-1-yl)piperidin-1-yl)phenyl)pyrimidin-4-amine]
< 50 nM	COc1cc(N2CCCN(C)CC2)ccc1Nc1cc(N2OCC[C@@H]2c2ccccc2)ncn1 [Example 67, (R)—N-(2-methoxy-4-(4-methyl-1,4-diazepan-1-yl)phenyl)-6-(3-phenylisoxazolidin-2-yl)pyrimidin-4-amine]
50 to 500 nM	COc1cc2c(cc1Nc1cc(N3OCC[C@@H]3c3cccc(F)c3F)ncn1)C(=O)N(C)C2 [Example 193, (R)-6-((6-(3-(2,3-difluorophenyl)isoxazolidin-2-yl)pyrimidin-4-yl)amino)-5-methoxy-2-methylisoindolin-1-one]
< 50 nM	CN(C)C1CCN(c2ccc(Nc3cc(N4OCC[C@@H]4c4ccccc4)ncn3)cc2)CC1 [Example 127, (R)—N-(4-(4-(dimethylamino)piperidin-1-yl)phenyl)-6-(3-phenylisoxazolidin-2-yl)pyrimidin-4-amine]
50 to 500 nM	COc1cc(N2CCC(N3CCN(C)CC3)CC2)ccc1Nc1cc(N2OCC[C@@H]2c2ccc(C)nc2)ncn1 [Example 38, (R)—N-(2-methoxy-4-(4-(4-methylpiperazin-1-yl)piperidin-1-yl)phenyl)-6-(3-(6-methylpyridin-3-yl)isoxazolidin-2-yl)pyrimidin-4-amine]
< 50 nM	COc1cc(Nc2cc(N3OCC[C@@H]3c3cc(F)ccc3F)ncn2)ccc1N1CCC(N2CCN(C)CC2)CC1 [Example 106, (R)-6-(3-(2,5-difluorophenyl)isoxazolidin-2-yl)-N-(3-methoxy-4-(4-(4-methylpiperazin-1-yl)piperidin-1-yl)phenyl)pyrimidin-4-amine]
< 50 nM	CCc1cc(Nc2cc(N3OCC[C@@H]3c3ccc(F)cc3)ncn2)c(OC)cc1N1CCC(N2CCN(C)CC2)CC1 [Example 91, (R)—N-(5-ethyl-2-methoxy-4-(4-(4-methylpiperazin-1-yl)piperidin-1-yl)phenyl)-6-(3-(4-fluorophenyl)isoxazolidin-2-yl)pyrimidin-4-amine]
< 50 nM	C=Cc1cc(Nc2cc(N3OCC[C@@H]3c3cccc(F)c3F)ncn2)c(OC)cc1N1CCN(C)CC1 [Example 199, (R)-6-(3-(2,3-difluorophenyl)isoxazolidin-2-yl)-N-(2-methoxy-4-(4-methylpiperazin-1-yl)-5-vinylphenyl)pyrimidin-4-amine]
< 50 nM	COc1cc(Nc2cc(N3OCC[C@@H]3c3ccc(F)cc3F)ncn2)ccc1N1CCC(N2CCN(C)CC2)CC1 [Example 95, (R)-6-(3-(2,4-difluorophenyl)isoxazolidin-2-yl)-N-(3-methoxy-4-(4-(4-methylpiperazin-1-yl)piperidin-1-yl)phenyl)pyrimidin-4-amine]
< 50 nM	COc1cc(N2CCC(N3CCN(C)CC3)CC2)ccc1Nc1cc(N2OCC[C@@H]2c2ccc(F)cc2)ncn1 [Example 33, (R)-6-(3-(4-fluorophenyl)isoxazolidin-2-yl)-N-(2-methoxy-4-(4-(4-methylpiperazin-1-yl)piperidin-1-yl)phenyl)pyrimidin-4-amine]
< 50 nM	COc1cc(N2CCC(N3CCN(C)CC3)CC2)c(C)cc1Nc1cc(N2OCC[C@@H]2c2cc(F)cc(F)c2)ncn1 [Example 20, (R)-6-(3-(3,5-difluorophenyl)isoxazolidin-2-yl)-N-(2-methoxy-5-methyl-4-(4-(4-methylpiperazin-1-yl)piperidin-1-yl)phenyl)pyrimidin-4-amine]
< 50 nM	COc1cc(N2CCC(N3CCN(C)CC3)CC2)c(C2CC2)cc1Nc1cc(N2OCC[C@@H]2c2ccccc2)ncn1 [Example 143, (R)—N-(5-cyclopropyl-2-methoxy-4-(4-(4-methylpiperazin-1-yl)piperidin-1-yl)phenyl)-6-(3-phenylisoxazolidin-2-yl)pyrimidin-4-amine]
< 50 nM	CN1CCN(C2CCN(c3c(F)cc(Nc4cc(N5OCC[C@@H]5c5ccccc5)ncn4)cc3F)CC2)CC1 [Example 123, (R)—N-(3,5-difluoro-4-(4-(4-methylpiperazin-1-yl)piperidin-1-yl)phenyl)-6-(3-phenylisoxazolidin-2-yl)pyrimidin-4-amine]
< 50 nM	COc1cc(N2CC(N3CCN(C)CC3)C2)ccc1Nc1cc(N2OCC[C@@H]2c2cccc(F)c2F)ncn1 [Example 218, (R)-6-(3-(2,3-difluorophenyl)isoxazolidin-2-yl)-N-(2-methoxy-4-(3-(4-methylpiperazin-1-yl)azetidin-1-yl)phenyl)pyrimidin-4-amine]
50 to 500 nM	COc1cc(N2CCC(N3CCN(C)CC3)CC2)ccc1Nc1cc(N2OCC[C@@H]2c2cccc(C(=O)OC(C)C)c2)ncn1 [Example 100, isopropyl (R)-3-(2-(6-((2-methoxy-4-(4-(4-methylpiperazin-1-yl)piperidin-1-yl)phenyl)amino)pyrimidin-4-yl)isoxazolidin-3-yl)benzoate]
< 50 nM	COc1cc(SCCN(C)C)ccc1Nc1cc(N2OCC[C@@H]2c2ccccc2)ncn1 [Example 65, (R)—N-(4-((2-(dimethylamino)ethyl)thio)-2-methoxyphenyl)-6-(3-phenylisoxazolidin-2-yl)pyrimidin-4-amine]

Structure (SMILES)	GI50
CN1C2CC1CN(c1ccc(Nc3cc(N4OCC[C@@H]4c4ccccc4)ncn3)cc1)C2 [Example 136, N-(4-(6-methyl-3,6-diazabicyclo[3.1.1]heptan-3-yl)phenyl)-6-((R)-3-phenylisoxazolidin-2-yl)pyrimidin-4-amine]	< 50 nM
